The values below come from US6362370B1, “Wood preservatives” (Lonza AG, priority 1996, dated 2002).

Where only a bound is given, the exact number is not on record here.

The nature of series [1]: Penetration depth in sapwood blocks after immersion in aqueous QAC solution. The class given is physicochemical. Conditions: sapwood blocks 2.5 cm×5.0 cm×12 cm, immersion in 5% strength aqueous solution, 24 hours at 20° C. As for the experimental part:
Fine sapwood blocks of dimensions 2.5 cm×5.0 cm×12 cm were impregnated with the QAC shown in the table by immersion in an aqueous solution of in each case 5% strength. The immersion time was a standard 24 hours (at 20° C.).

The test system of series [2] is fungus-infested soil (forest soil). Kind of series: Soil burying method according to Schwammkeller: service life of impregnated beechwood bars. To be noted: beechwood bars 1 cm×1 cm×40 cm, immersion in 0.5% strength solution for 24 hours, buried in fungus-infested soil, time until flexural breaking strength has fallen to 25% of the initial value. How it is done: Bars of beechwood (1 cm×1 cm×40 cm) were impregnated by immersion in a 0.5% strength solution of the SAC for 24 hours and then tested by the soil burying method according to Schwammkeller. For this, treated and untreated timbers were buried in fungus-infested soil (forest soil). The service life here is defined as the time after which the flexural breaking strength has fallen to 25% of the initial value of (untreated) comparison timbers of the same dimensions and type of wood.

“N,N-dimethyl-N-benzyl-N-(coconut alkyl)ammonium [Example V1, reference compound]”: the Penetration depth in series [1] is 1-3 mm. This substance had a Service life in series [2] (listed as V5) of 3 months.

In the case of “N,N-didecyl-N-methyl-N-(polyoxyethyl)ammonium [Example V4, reference compound]”, the Penetration depth in series [1] is 3-4 mm.

For the substance “N,N-dimethyl-N-benzyl-N-(coconut alkyl)ammonium [Example V2, reference compound]”, the Penetration depth in series [1] is given as 2-3 mm.

“N,N-didecyl-N-methyl-N-(polyoxyethyl)ammonium [Example 9]”: the Penetration depth in series [1] is 6-8 mm.

Turning to “N,N-didecyl-N-methyl-N-(polyoxyethyl)ammonium hydroxyacetate [Example 8]”, the Penetration depth in series [1] was 7-10 mm.

In the case of “N,N-didecyl-N-methyl-N-(polyoxyethyl)ammonium lactate [Example 7]”, in series [1], the Penetration depth is recorded as 7-8 mm. The same substance registered a Service life in series [2] of over 9 months.

For “N,N-dimethyl-N-benzyl-N-(coconut alkyl)ammonium [Example 5]”, the Penetration depth in series [1] is reported as 6-8 mm. Further, the Service life in series [2] (listed as 10) is on record as over 9 months.

For “N,N-didecyl-N-methyl-N-(polyoxyethyl)ammonium [Example V3, reference compound]”, the Penetration depth in series [1] is given as 2-3 mm. Also, the Service life in series [2] is 4 months.

“N,N-dimethyl-N-benzyl-N-(coconut alkyl)ammonium [Example 6]”: in series [1], the Penetration depth is reported as 7-8 mm.
